Source: patent publication US11136409B2, “Compositions and methods for identification, assessment, prevention, and treatment of AML using USP10 biomarkers and modulators” (Dana-Farber Cancer Institute, Inc., priority 2016, dated 2021)
Where two headings read alike, the source gives them in different places.

Experiments:
P31 = test: Anti-proliferation, 24 hr treatment (CellTiter-Glo); format: cell-based, human; conditions: read-out: Anti-proliferation IC50
From the text: (§1) Nomo-1, P31-FUJ, and NB4 were obtained from Dr. Gary Gilliland. MV4, 11 cells were obtained from Dr. Anthony Letai. Hel, K562, THP, U937, TF-1 and K052 cells were purchased from the American Type Culture Collection (ATCC) (Manassas, Va., USA). […] Cell lines were submitted for cell line authentication and were authenticated within 6 months of manuscript preparation through cell line short tandem repeat (STR) profiling (DDC Medical, Fairfield, Ohio and Molecular Diagnostics Laboratory, Dana Farber Cancer Institute). […] PBMCs were generously provided by Dr. Steven Treon and Dr. Guang Yang.
(§2) The CellTiter-Glo® assay (Promega, Madison, Wis.) was used for proliferation studies and carried out according to manufacturer instructions. Cell viability is reported as percentage of control (untreated) cells, and error bars represent the standard error of the mean for each data point.

U937 = test: as above; format: cell-based, human; conditions: read-out: Anti-proliferation IC50
From the text: as §1, §2

Ba/F3-FLT3-ITD cells = test: Immunoblot of FLT3 / Beclin-1 in Ba/F3-FLT3-ITD cells; format: cell-based, murine; conditions: for FLT3 protein levels: immunoblot, Ba/F3-FLT3-ITD cells
From the text: The following antibodies were purchased from Cell Signaling Technology (Danvers, Mass.): total AKT (rabbit, #9272) and total p44/42 MAPK (Erk1/2) (3A7) (mouse, #9107) were used at 1:1000 dilution. Anti-GAPDH (D16H-11) XP (R) (rabbit mAb, #5174) was used at 1:1000 dilution. Beclin-1 (rabbit, #3738) was used at 1:1000. USP10 (D7A5) (rabbit, #8501) was used at 1:1000 dilution. P53 (rabbit, #9282) was used at 1:1000 dilution. β-tubulin (rabbit, #2146s) was used 1:1000.
(§3) FLT3/Flk-2 (C-20) (sc-479) and Ub (P4D1) (mouse, sc-8017) were purchased from Santa Cruz Biotechnology, Inc. (Dallas, Tex.) and used at 1:1000 dilution for immunoblotting. Anti-pTyr (mouse, clone 4G10) was purchased from Upstate Biotechnology (Lake Placid, N.Y.) and was used at 1:1000 dilution. Anti-HAUSP/USP7 antibody (rabbit, ab4080) and anti-ubiquitin antibody (rabbit, ab7780) were purchased from Abcam (Cambridge, Mass.) and used at 1:1000 dilution.
(§4) Protein lysate preparation, immunoblotting, and immunoprecipitation were carried out as previously described in Weisberg et al. (2002) Cancer Cell 1:433-443.

[1] = system: mutant FLT3-expressing cells; test: Dynamic BH3 profiling (mitochondrial priming); format: cell-based, human; conditions: cytochrome c release in response to Bim peptide, 14 h; compared to wt or null FLT3-expressing cells
Experimental: To determine drug-induced changes in mitochondrial priming, dynamic BH3 profiling was performed as previously described in Montero et al. (2015) Cell 160:977-989 and Pan et al. (2014) Cancer Discov. 4:362-375. Briefly, 0.4×10^6 cells/well were exposed to drug treatment for 14 hours. At the end of incubation time, cells were washed in PBS, pelleted at 500×g for 5 min, and resuspended in MEB buffer. Fifteen μl of cell suspension was added to each well of 384 well plate containing 15 μl of MEB buffer containing 20 μg/mL digitonin and BH3 peptides at twice their final concentration, and the mixture was incubated for 60 min at 26° C. to allow mitochondrial depolarization. Peptide exposure was then terminated by adding 10 μl 4% formaldehyde in PBS for 15 min, followed by neutralization with N2 buffer (1.7M Tris, 1.25M glycine, pH 9.1) for 10 min. In order to determine cytochrome C levels, anti-cytochrome C clone 6H2.B4 conjugated to Alexa Fluor® 647 (BD Bioscience) was diluted 1:50 in 10× staining buffer (10% BSA, 2% Tween-20 and 0.02% sodium azide in PBS) and 10 μl of this antibody-containing buffer was added to each well for a final dilution of 1:400. Cells were stained overnight at 4° C. in dark and data were acquired on a BD LSRFortessa™ analyzer (BD Biosciences). Priming change (Δ) was calculated by comparing cytochrome C abundance in treated cells to that of DMSO-treated control cells.

Ba/F3-D835Y cells [2] = test: Immunoblot of FLT3 in Ba/F3-D835Y cells; format: cell-based, murine
From the text: as §3, §4

Ba/F3-D835Y cells [3] = system: Ba/F3-D835Y cells
[4] = system: FLT3-ITD-positive AML primagraft cells; test: FLT3 immunoblot in ex vivo-treated AML primagraft cells; format: cell-based, human; conditions: 21 hours of treatment; concentration of 20
Experimental: as §4

[5] = system: panel of 33 recombinant DUB enzymes; conditions: 10 μM compound; diubiquitin as substrate
Experimental: […] […] The enzymes were pre-incubated with the compounds for 30 min at room temperature at 10 μM final concentration. 0.48 μl of di-ubiquitin topoisomers were added to the reaction mixture to initiate the reaction. The reaction was sealed and incubated for 30 min at room temperature and stopped by adding TFA to a final concentration of 2% (v/v).
Mass spectrometry data was acquired on an UltrafleXtreme MALDI-TOF mass spectrometer (Bruker Daltonics) with Compass 1.3 control and processing software. The sample carrier was taught before each analysis to optimize and centre laser shooting. […] Samples were analysed in automatic mode (AutoXecute, Bruker Daltonics). […] An amount of 3,500 shots were summed up in “random walk” and with “large” smartbeam laser focus. Spectra were automatically calibrated on the ^15N-Ub m/z and processed using smoothing (Savitzky-Golay algorithm) and baseline subtraction (‘TopHat’) for reproducible peak annotation on non-resolved isotope distributions: one cycle, 0.2 m/z for the width. For area calculation, the complete isotopic distribution was taken into account. An in-house made script was used to report—^15N and mono-ubiquitin areas; plotting of graphs, calculation of standard deviation and coefficient of variation (%) were processed in Microsoft Excel.

USP10 = USP10 (Homo sapiens, UniProt Q14694); test: MALDI TOF DUB assay with diubiquitin substrate; format: biochemical; conditions: diubiquitin (K11) as substrate
Chain of USP10 (Q14694 whole entry): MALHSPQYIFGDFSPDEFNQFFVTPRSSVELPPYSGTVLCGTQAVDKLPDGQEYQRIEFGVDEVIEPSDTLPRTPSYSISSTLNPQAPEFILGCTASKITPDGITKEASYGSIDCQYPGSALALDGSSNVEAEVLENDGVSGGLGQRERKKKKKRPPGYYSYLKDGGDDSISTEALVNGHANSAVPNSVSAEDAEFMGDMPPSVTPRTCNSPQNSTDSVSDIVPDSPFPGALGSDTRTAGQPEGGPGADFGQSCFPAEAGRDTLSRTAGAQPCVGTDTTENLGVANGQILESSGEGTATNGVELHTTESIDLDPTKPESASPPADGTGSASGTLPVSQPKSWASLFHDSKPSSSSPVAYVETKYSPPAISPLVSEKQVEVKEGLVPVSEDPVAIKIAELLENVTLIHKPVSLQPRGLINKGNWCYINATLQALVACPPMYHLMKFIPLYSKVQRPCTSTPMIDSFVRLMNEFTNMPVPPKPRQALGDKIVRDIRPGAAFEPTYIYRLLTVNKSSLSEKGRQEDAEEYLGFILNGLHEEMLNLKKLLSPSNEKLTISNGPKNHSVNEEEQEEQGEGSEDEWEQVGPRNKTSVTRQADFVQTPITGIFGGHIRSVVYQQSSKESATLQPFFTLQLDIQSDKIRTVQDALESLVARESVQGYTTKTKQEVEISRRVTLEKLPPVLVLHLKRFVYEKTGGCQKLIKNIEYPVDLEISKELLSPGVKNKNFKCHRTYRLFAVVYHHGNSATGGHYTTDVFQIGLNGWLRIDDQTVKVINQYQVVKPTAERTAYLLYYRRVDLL
Experimental: Thirty-one human DUBs were freshly diluted in the reaction buffer (40 mM Tris-HCl, pH 7.6, 5 mM DTT, 0.005% BSA) at different concentrations (see Table 10). […] The enzymes were pre-incubated with the compounds for 30 min at room temperature at 10 μM final concentration. 0.48 μl of di-ubiquitin topoisomers were added to the reaction mixture to initiate the reaction. The reaction was sealed and incubated for 30 min at room temperature and stopped by adding TFA to a final concentration of 2% (v/v).
Mass spectrometry data was acquired on an UltrafleXtreme MALDI-TOF mass spectrometer (Bruker Daltonics) with Compass 1.3 control and processing software. The sample carrier was taught before each analysis to optimize and centre laser shooting. […] Samples were analysed in automatic mode (AutoXecute, Bruker Daltonics). […] An amount of 3,500 shots were summed up in “random walk” and with “large” smartbeam laser focus. Spectra were automatically calibrated on the ^15N-Ub m/z and processed using smoothing (Savitzky-Golay algorithm) and baseline subtraction (‘TopHat’) for reproducible peak annotation on non-resolved isotope distributions: one cycle, 0.2 m/z for the width. For area calculation, the complete isotopic distribution was taken into account. […]

[6] = system: wt FLT3-expressing leukemia cell lines; test: FLT3 protein in wt FLT3-expressing leukemia cell lines (immunoblot); format: cell-based, human; conditions: approximately 23 hours of treatment
Experimental: as §4

[7] = 24 hr treatment, P31 (FLT3 wt or null)
[8] = 24 hr treatment, U937 (FLT3 wt or null)

Row | SMILES | IC50 (P31; [7]) | IC50 (U937; [8]) | FLT3 protein levels (Ba/F3-FLT3-ITD cells) | Mitochondrial priming for apoptosis [1] | IC50 (P31; Homo sapiens, 24 h) | IC50 (U937; Homo sapiens, U-937, 24 h) | FLT3 protein levels (Ba/F3-D835Y cells [2]) | Protein levels of Beclin-1 and FLT3 (Ba/F3-FLT3-ITD cells; 20 μM) | Proliferation EC50 (Ba/F3-D835Y cells [3]) | FLT3 levels via immunoblotting [4] | Inhibition of DUBs other than USP10 [5] | IC50 (USP10) | FLT3 protein [6]
1 | CCCN(CCC)CCCNC(=O)c1ccc2c(Cl)c3c(nc2c1)CCCC3 [C598-0466] | 13.9 µM | 12.9 µM | induces FLT3 degradation at lower concentrations |  |  |  |  |  |  |  |  |  | 
2 | O=C(NCCCN1CCN(Cc2ccccc2)CC1)c1ccc2nc3c(c(Cl)c2c1)CCCC3 [C598-0563] | 10.6 µM | 13.7 µM | induce loss of FLT3 at similar concentrations |  |  |  |  |  |  |  |  |  | 
3 | CCN(CCCNC(=O)c1ccc2nc3c(c(Cl)c2c1)CCC3)Cc1ccccc1 [C673-0105] | 29 µM | 16.2 µM |  | more strongly |  |  |  |  |  |  |  |  | 
4 | CN(CCCNC(=O)c1ccc2nc3c(c(Cl)c2c1)CCCC3)Cc1ccccc1 [HBX19818, reference compound] |  |  | loss of FLT3 protein | increased priming | 18.2 µM | 20.7 µM | more modest loss of FLT3 protein | strongly decreased | single digit micromolar range | no trace of FLT3 | ≤ 20% | 14 µM | little to no impact
